From PubChem BioAssay (NCI)
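Five compound concentrations were applied to cells in 96-well plates for 48 hours; endpoints were derived by simple linear interpolation of the resulting dose-response curve. GI50 marks 50% less growth. The concentration for full growth arrest is given as TGI.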

Experiments:
Experiment in all cases: NCI-60 cell line screen, 48 h
[1] = tested on: CCRF-CEM leukemia
[2] = tested on: NCI-H522 lung
[3] = tested on: HOP-92 NSCLC
[4] = tested on: UACC-257 melanoma
[5] = tested on: MOLT-4 leukemia
[6] = tested on: DU-145 prostate
[7] = tested on: NCI-H226 lung
[8] = tested on: OVCAR-5 ovarian
[9] = tested on: T-47D breast
[10] = tested on: NCI-H23 lung
[11] = tested on: TK-10 renal
[12] = tested on: HL-60(TB) leukemia
[13] = tested on: SF-295 CNS
[14] = tested on: UACC-62 melanoma
[15] = tested on: MDA-MB-435
[16] = tested on: SN12C renal
[17] = tested on: NCI-H460 lung
[18] = tested on: HCT-15 colon
[19] = tested on: NCI/ADR-RES ovarian
[20] = tested on: SF-539 CNS
[21] = tested on: SK-MEL-28 melanoma
[22] = tested on: IGROV1 ovarian
[23] = tested on: PC-3 prostate
[24] = tested on: OVCAR-8 ovarian
[25] = tested on: EKVX NSCLC
[26] = tested on: MALME-3M melanoma
[27] = tested on: MDA-MB-231 breast
[28] = tested on: SNB-75 CNS
[29] = tested on: SF-268 CNS
[30] = tested on: CAKI-1 renal
[31] = tested on: HT29 colon
[32] = tested on: LOX IMVI melanoma
[33] = tested on: MCF7 breast
[34] = tested on: ACHN renal
[35] = tested on: HOP-62 NSCLC
[36] = tested on: KM12 colon
[37] = tested on: BT-549 breast
[38] = tested on: SR leukemia
[39] = tested on: OVCAR-4 ovarian
[40] = tested on: SNB-19 CNS
[41] = tested on: SW-620 colon
[42] = tested on: HCT-116 colon
[43] = tested on: OVCAR-3 ovarian
[44] = tested on: U251 CNS
[45] = tested on: 786-0 renal
[46] = tested on: SK-MEL-5 melanoma
[47] = tested on: SK-OV-3 ovarian
[48] = tested on: M14 melanoma
[49] = tested on: A549 NSCLC
[50] = tested on: UO-31 renal
[51] = tested on: COLO 205 colon
[52] = tested on: HCC-2998 colon
[53] = tested on: RPMI-8226 leukemia
[54] = tested on: K-562 leukemia
[55] = tested on: SK-MEL-2 melanoma
[56] = tested on: HS 578T breast
[57] = tested on: RXF 393 renal

With `S=C1NCCN1C1=Nc2ccccc2CO1` the GI50 [1] was > 100 µM, the TGI [1] was > 100 µM and the GI50 [2] was > 100 µM. The TGI [2] was > 100 µM, the GI50 [3] was > 100 µM and the TGI [3] was > 100 µM. The GI50 [4] was > 100 µM, the TGI [4] was > 100 µM and the GI50 [5] was > 100 µM. The TGI [5] was > 100 µM, the GI50 [6] was > 100 µM and the TGI [6] was > 100 µM. For the same compound, the GI50 [7] was > 100 µM, the TGI [7] was > 100 µM and the GI50 [8] was > 100 µM. For the same compound, the TGI [8] was > 100 µM, the GI50 [9] was 73.5 µM and the TGI [9] was > 100 µM. For the same compound, the GI50 [10] was > 100 µM, the TGI [10] was > 100 µM and the GI50 [11] was > 100 µM. For the same compound, the TGI [11] was > 100 µM, the GI50 [12] was > 100 µM and the TGI [12] was > 100 µM. For the same compound, the GI50 [13] was > 100 µM, the TGI [13] was > 100 µM and the GI50 [14] was > 100 µM. For the same compound, the TGI [14] was > 100 µM, the GI50 [15] was > 100 µM and the TGI [15] was > 100 µM. The GI50 [16] was > 100 µM, the TGI [16] was > 100 µM and the GI50 [17] was > 100 µM. The TGI [17] was > 100 µM, the GI50 [18] was > 100 µM and the TGI [18] was > 100 µM. The GI50 [19] was > 100 µM, the TGI [19] was > 100 µM and the GI50 [20] was > 100 µM. For the same compound, the TGI [20] was > 100 µM, the GI50 [21] was > 100 µM and the TGI [21] was > 100 µM. The GI50 [22] was 74 µM, the TGI [22] was > 100 µM and the GI50 [23] was > 100 µM. The TGI [23] was > 100 µM, the GI50 [24] was > 100 µM and the TGI [24] was > 100 µM. The GI50 [25] was 93.6 µM, the TGI [25] was > 100 µM and the GI50 [26] was > 100 µM. For the same compound, the TGI [26] was > 100 µM, the GI50 [27] was > 100 µM and the TGI [27] was > 100 µM. The GI50 [28] was 22.5 µM, the TGI [28] was > 100 µM and the GI50 [29] was > 100 µM. The TGI [29] was > 100 µM, the GI50 [30] was > 100 µM and the TGI [30] was > 100 µM. For the same compound, the GI50 [31] was > 100 µM, the TGI [31] was > 100 µM and the GI50 [32] was > 100 µM. The TGI [32] was > 100 µM, the GI50 [33] was > 100 µM and the TGI [33] was > 100 µM. The GI50 [34] was > 100 µM, the TGI [34] was > 100 µM and the GI50 [35] was > 100 µM. The TGI [35] was > 100 µM, the GI50 [36] was > 100 µM and the TGI [36] was > 100 µM. For the same compound, the GI50 [37] was > 100 µM, the TGI [37] was > 100 µM and the GI50 [38] was > 100 µM. The TGI [38] was > 100 µM, the GI50 [39] was > 100 µM and the TGI [39] was > 100 µM. For the same compound, the GI50 [40] was > 100 µM, the TGI [40] was > 100 µM and the GI50 [41] was > 100 µM. For the same compound, the TGI [41] was > 100 µM, the GI50 [42] was > 100 µM and the TGI [42] was > 100 µM. For the same compound, the GI50 [43] was > 100 µM, the TGI [43] was > 100 µM and the GI50 [44] was > 100 µM. The TGI [44] was > 100 µM, the GI50 [45] was > 100 µM and the TGI [45] was > 100 µM. For the same compound, the GI50 [46] was 41.7 µM, the TGI [46] was 99.4 µM and the GI50 [47] was > 100 µM. For the same compound, the TGI [47] was > 100 µM, the GI50 [48] was > 100 µM and the TGI [48] was > 100 µM. The GI50 [49] was > 100 µM, the TGI [49] was > 100 µM and the GI50 [50] was > 100 µM. The TGI [50] was > 100 µM, the GI50 [51] was > 100 µM and the TGI [51] was > 100 µM. For the same compound, the GI50 [52] was > 100 µM, the TGI [52] was > 100 µM and the GI50 [53] was > 100 µM. For the same compound, the TGI [53] was > 100 µM, the GI50 [54] was > 100 µM and the TGI [54] was > 100 µM.

`COc1nc2c(cc1S(=O)(=O)c1ccccc1)CCc1c-2cnn1-c1ccccc1Cl` was tested, and the GI50 [1] was 7.84 µM, the TGI [1] was > 100 µM and the GI50 [2] was 3.02 µM. The TGI [2] was > 100 µM, the GI50 [4] was 21.8 µM and the TGI [4] was > 100 µM. The GI50 [5] was 4.76 µM, the TGI [5] was > 100 µM and the GI50 [6] was > 100 µM. The TGI [6] was > 100 µM, the GI50 [7] was 4.91 µM and the TGI [7] was > 100 µM. The GI50 [8] was > 100 µM, the TGI [8] was > 100 µM and the GI50 [12] was 4.98 µM. The TGI [12] was > 100 µM, the GI50 [13] was 5.72 µM and the TGI [13] was > 100 µM. The GI50 [14] was 7.29 µM, the TGI [14] was > 100 µM and the GI50 [15] was 8.94 µM. The TGI [15] was > 100 µM, the GI50 [16] was 19.6 µM and the TGI [16] was > 100 µM. For the same compound, the GI50 [17] was 26.3 µM, the TGI [17] was > 100 µM and the GI50 [18] was 6.24 µM. For the same compound, the TGI [18] was > 100 µM, the GI50 [19] was 8.24 µM and the TGI [19] was > 100 µM. For the same compound, the GI50 [20] was > 100 µM, the TGI [20] was > 100 µM and the GI50 [55] was 71.7 µM. The TGI [55] was > 100 µM, the GI50 [21] was > 100 µM and the TGI [21] was > 100 µM. For the same compound, the GI50 [22] was > 100 µM, the TGI [22] was > 100 µM and the GI50 [23] was 3.09 µM. The TGI [23] was > 100 µM, the GI50 [24] was 8.7 µM and the TGI [24] was > 100 µM. For the same compound, the GI50 [56] was 4.7 µM, the TGI [56] was > 100 µM and the GI50 [27] was 5.16 µM. The TGI [27] was > 100 µM, the GI50 [28] was 5.19 µM and the TGI [28] was > 100 µM. For the same compound, the GI50 [29] was 17 µM, the TGI [29] was > 100 µM and the GI50 [30] was 5.2 µM. The TGI [30] was > 100 µM, the GI50 [31] was 4.73 µM and the TGI [31] was > 100 µM. For the same compound, the GI50 [32] was > 100 µM, the TGI [32] was > 100 µM and the GI50 [33] was 4.13 µM. The TGI [33] was > 100 µM, the GI50 [35] was > 100 µM and the TGI [35] was > 100 µM. For the same compound, the GI50 [36] was 4.49 µM, the TGI [36] was > 100 µM and the GI50 [37] was 3.49 µM. For the same compound, the TGI [37] was > 100 µM, the GI50 [38] was 5.01 µM and the TGI [38] was > 100 µM. For the same compound, the GI50 [39] was 7.3 µM, the TGI [39] was > 100 µM and the GI50 [40] was 7.25 µM. For the same compound, the TGI [40] was > 100 µM, the GI50 [41] was > 100 µM and the TGI [41] was > 100 µM. The GI50 [42] was 5.31 µM, the TGI [42] was > 100 µM and the GI50 [43] was 8.17 µM. The TGI [43] was > 100 µM, the GI50 [44] was 5.94 µM and the TGI [44] was > 100 µM. For the same compound, the GI50 [45] was 7.28 µM, the TGI [45] was > 100 µM and the GI50 [46] was 3.31 µM. The TGI [46] was > 100 µM, the GI50 [47] was > 100 µM and the TGI [47] was > 100 µM. The GI50 [48] was > 100 µM, the TGI [48] was > 100 µM and the GI50 [49] was 4.97 µM. The TGI [49] was > 100 µM, the GI50 [50] was 3.13 µM and the TGI [50] was > 100 µM. For the same compound, the GI50 [57] was 6.74 µM, the TGI [57] was > 100 µM and the GI50 [51] was 9.07 µM. For the same compound, the TGI [51] was > 100 µM, the GI50 [52] was > 100 µM and the TGI [52] was > 100 µM. The GI50 [53] was 5.39 µM, the TGI [53] was > 100 µM and the GI50 [54] was 5.23 µM. For the same compound, the TGI [54] was > 100 µM.
